Measured values taken from patent publication US10202379B2, “Substituted polycyclic carbamoyl pyridone derivative prodrug” (priority 2010, dated 2019).

What was measured:
[1] = tested on: influenza virus (A/WS/33, A/Victoria/3/75 or B/Maryland/1/59); format: in vivo; conditions: oral, infected mouse, 14 days after virus infection
[2] = target: Cap-dependant Endonuclease (CEN) (RNP fraction, PB1-PB2-PA complex) (Influenza A virus (strain A/Wilson-Smith/1933 H1N1) (Influenza A virus (strain A/WS/1933 H1N1)), UniProt P15659); format: biochemical, influenza A/WSN/33 virus
[3] = BA test (oral absorbability); format: in vivo; conditions: rat, oral administration of parent compound
Experimental: Experimental Material and Method for Studying Oral Absorbability
(1) Animal to be used: A mouse or rat was used.
(2) Rearing conditions: Mouse and rat ingested a solid feed and sterilized tap water ad-libitum.
(3) Dose and setting of grouping: A predetermined dose was administered orally or intravenously. A group was set as follows. (a dose varied for every compound)
Oral administration 1 to 30 mg/kg (n=2 to 3)
Intravenous administration 0.5 to 10 mg/kg (n=2 to 3)
(4) Preparation of administration solution: For oral administration, a solution or suspension was administered. For intravenous administration, a compound which was solubilized was administered.
(5) Administration method: For oral administration, the administration solution was forcibly administered to the stomach by oral sonde. For intravenous administration, the administration solution was administered with a syringe equipped with an injection needle through a tail vein.
(6) Assessment item: Blood was collected with time, and a plasma drug concentration was measured using LC/MS/MS.
(7) Statistical analysis: Regarding plasma concentration transition, an area under a plasma concentration-time curve (AUC) was calculated using a non-linear minimum square method program WinNonlin (registered trademark), and bioavailability (BA) was calculated from AUC of an oral-administered group and an intervenous-administered group.

influenza virus = test: microbe, parasite or virus in culture; format: cell-based; conditions: unidentified influenza virus, 72 h, read-out: CPE EC50, parent compounds (Reference examples); MDBK or MDCK cells, 3 days, WST-8

Compound	ED50 of single dose (dose for 50% lethality inhibition) [1]	IC50 [2]	Parent compound BA(%) [3]	EC50 (influenza virus)
CC(=O)Oc1c2n(ccc1=O)N([C@H]1c3ccccc3CSc3ccccc31)CN([C@H](C)C(F)(F)F)C2=O [Example 20]	4.4 mg/kg/day			
C[C@@H](N1CN([C@H]2c3cccc(F)c3CSc3c(Cl)cccc32)n2ccc(=O)c(O)c2C1=O)C(F)(F)F [Reference example 594]		11 nM	5.0%	4 nM
